# Measurements from ChEMBL document CHEMBL4145553, “Design, synthesis, and biological evaluation of novel amide and hydrazide based thioether analogs targeting Histone deacteylase (HDAC) enzymes” (Eur J Med Chem, 2018).
# Columns and labels:
# Assay type in all cases: functional
# [1] = tested on: SF-539; assay: Growth inhibition of human SF539 cells assessed as cell growth at 10^-8 M incubated for 48 hrs by sulforhodamine B assay relative to control; details: SF-539, 48 h, read-out: Activity
# [2] = tested on: CCRF-CEM; assay: Growth inhibition of human CCRF-CEM cells assessed as cell growth at 10^-8 M incubated for 48 hrs by sulforhodamine B assay relative to control; details: read-out: Activity
# [3] = tested on: A498; assay: Growth inhibition of human A498 cells assessed as cell growth at 10^-5 M incubated for 48 hrs by sulforhodamine B assay relative to control; details: A498, 48 h, read-out: Activity
# [4] = tested on: MDA-MB-435; assay: Growth inhibition of human MDA-MB-435 cells incubated for 48 hrs by sulforhodamine B assay; details: MDA-MB-435, 48 h
# [5] = tested on: HCC 2998; assay: Growth inhibition of human HCC2998 cells incubated for 48 hrs by sulforhodamine B assay; details: HCC 2998, 48 h
# [6] = tested on: Hs-578T; assay: Growth inhibition of human Hs 578T cells assessed as cell growth at 10^-7 M incubated for 48 hrs by sulforhodamine B assay relative to control; details: read-out: Activity
# [7] = tested on: NCI-H322M; assay: Growth inhibition of human NCI-H322M cells assessed as cell growth at 10^-6 M incubated for 48 hrs by sulforhodamine B assay relative to control; details: read-out: Activity
# [8] = tested on: SR; assay: Growth inhibition of human SR cells assessed as cell growth at 10^-8 M incubated for 48 hrs by sulforhodamine B assay relative to control; details: read-out: Activity
# [9] = tested on: HOP-62; assay: Growth inhibition of human HOP62 cells assessed as cell growth at 10^-4 M incubated for 48 hrs by sulforhodamine B assay relative to control; details: HOP-62, 48 h, read-out: Activity
# [10] = tested on: HL-60; assay: Cell cycle arrest in human HL60 cells assessed as accumulation at S-phase by propidium iodide staining based flow cytometry (reference value: 24.9%)
# [11] = tested on: LOX IMVI; assay: Growth inhibition of human LOXIMVI cells assessed as cell growth at 10^-7 M incubated for 48 hrs by sulforhodamine B assay relative to control; details: read-out: Activity
# [12] = tested on: EKVX; assay: Growth inhibition of human EKVX cells assessed as cell growth at 10^-4 M incubated for 48 hrs by sulforhodamine B assay relative to control; details: read-out: Activity
# [13] = tested on: Hs-578T; assay: Growth inhibition of human Hs 578T cells assessed as cell growth at 10^-6 M incubated for 48 hrs by sulforhodamine B assay relative to control; details: read-out: Activity
# [14] = tested on: UACC-257; assay: Growth inhibition of human UACC257 cells assessed as cell growth at 10^-4 M incubated for 48 hrs by sulforhodamine B assay relative to control; details: UACC-257, 48 h, read-out: Activity
# [15] = tested on: MDA-MB-435; assay: Growth inhibition of human MDA-MB-435 cells assessed as cell growth at 10^-8 M incubated for 48 hrs by sulforhodamine B assay relative to control; details: MDA-MB-435, 48 h, read-out: Activity
# [16] = tested on: SW-620; assay: Growth inhibition of human SW620 cells incubated for 48 hrs by sulforhodamine B assay; details: SW-620, 48 h
# [17] = tested on: SN12C; assay: Growth inhibition of human SN12C cells incubated for 48 hrs by sulforhodamine B assay
# [18] = tested on: A498; assay: Growth inhibition of human A498 cells incubated for 48 hrs by sulforhodamine B assay; details: A498, 48 h
# [19] = tested on: UACC-257; assay: Growth inhibition of human UACC257 cells incubated for 48 hrs by sulforhodamine B assay; details: UACC-257, 48 h
# [20] = tested on: HT-29; assay: Growth inhibition of human HT-29 cells assessed as cell growth at 10^-8 M incubated for 48 hrs by sulforhodamine B assay relative to control; details: HT-29, 48 h, read-out: Activity
# [21] = tested on: U-251; assay: Growth inhibition of human U251 cells assessed as cell growth at 10^-6 M incubated for 48 hrs by sulforhodamine B assay relative to control; details: U-251, 48 h, read-out: Activity
# [22] = tested on: MDA-MB-468; assay: Growth inhibition of human MDA-MB-468 cells assessed as cell growth at 10^-8 M incubated for 48 hrs by sulforhodamine B assay relative to control; details: MDA-MB-468, 48 h, read-out: Activity
# [23] = tested on: A498; assay: Growth inhibition of human A498 cells assessed as cell growth at 10^-6 M incubated for 48 hrs by sulforhodamine B assay relative to control; details: A498, 48 h, read-out: Activity
# [24] = tested on: NCI-H23; assay: Growth inhibition of human NCI-H23 cells assessed as cell growth at 10^-4 M incubated for 48 hrs by sulforhodamine B assay relative to control; details: NCI-H23, 48 h, read-out: Activity
# [25] = tested on: COLO 205; assay: Growth inhibition of human COLO205 cells assessed as cell growth at 10^-4 M incubated for 48 hrs by sulforhodamine B assay relative to control; details: COLO 205, 48 h, read-out: Activity
# [26] = tested on: UACC-62; assay: Growth inhibition of human UACC62 cells assessed as cell growth at 10^-8 M incubated for 48 hrs by sulforhodamine B assay relative to control; details: UACC-62, 48 h, read-out: Activity
# [27] = tested on: MDA-MB-435; assay: Cell cycle arrest in human MDA-MB-435 cells assessed as accumulation at G2-phase by propidium iodide staining based flow cytometry (reference value: 3.68%)
# [28] = tested on: IGROV-1; assay: Growth inhibition of human IGROV1 cells incubated for 48 hrs by sulforhodamine B assay; details: IGROV-1, 48 h
# [29] = tested on: NCI/ADR-RES; assay: Growth inhibition of human NCI/ADR-RES cells assessed as cell growth at 10^-5 M incubated for 48 hrs by sulforhodamine B assay relative to control; details: read-out: Activity
# [30] = read-out: LC50 (the source's name)
# [31] = read-out: pLC50 (the source's name) (converted)
structure (smiles),measurement,setting,value
CCS/C(Nc1ccccc1)=C(\C#N)C(=O)N/N=C\c1ccc(Cl)cc1Cl,growth at 0.01 µM,[1],105%
same,growth at 0.01 µM,[2],103%
same,growth at 10 µM,[3],3%
same,GI50,[4]; read-out: GI50,419 nM
same,CC50,[4]; [30],9.26 µM
same,TGI,[4]; read-out: TGI,2230 nM
same,GI50,[4]; read-out: pGI50 (converted),417 nM
same,CC50,[4]; [31],9.33 µM
same,TGI,[4]; read-out: pTGI (converted),2240 nM
same,GI50,[5]; read-out: GI50,5.47 µM
same,CC50,[5]; [30],> 100 µM
same,TGI,[5]; read-out: TGI,> 100 µM
same,GI50,[5]; read-out: pGI50 (converted),5.5 µM
same,CC50,[5]; [31],> 100 µM
same,TGI,[5]; read-out: pTGI,> 100 µM
same,growth at 0.1 µM,[6],92%
same,growth at 1 µM,[7],89%
same,growth at 0.01 µM,[8],91%
same,growth at 100 µM,[9],8%
same,Activity,[10],13.18%
same,growth at 0.1 µM,[11],96%
same,growth at 100 µM,[12],29%
same,growth at 1 µM,[13],75%
same,growth at 100 µM,[14],35%
same,growth at 0.01 µM,[15],95%
same,GI50,[16]; read-out: GI50,4.65 µM
same,CC50,[16]; [30],> 100 µM
same,TGI,[16]; read-out: TGI,> 100 µM
same,GI50,[16]; read-out: pGI50 (converted),4.68 µM
same,CC50,[16]; [31],> 100 µM
same,TGI,[16]; read-out: pTGI,> 100 µM
same,GI50,[17]; read-out: GI50,6.92 µM
same,CC50,[17]; [30],> 100 µM
same,TGI,[17]; read-out: TGI,> 100 µM
same,GI50,[17]; read-out: pGI50 (converted),6.92 µM
same,CC50,[17]; [31],> 100 µM
same,TGI,[17]; read-out: pTGI,> 100 µM
same,GI50,[18]; read-out: GI50,1870 nM
same,CC50,[18]; [30],> 100 µM
same,TGI,[18]; read-out: TGI,37.8 µM
same,GI50,[18]; read-out: pGI50 (converted),1860 nM
same,CC50,[18]; [31],> 100 µM
same,TGI,[18]; read-out: pTGI (converted),38 µM
same,GI50,[19]; read-out: GI50,25.7 µM
same,CC50,[19]; [30],> 100 µM
same,TGI,[19]; read-out: TGI,> 100 µM
same,GI50,[19]; read-out: pGI50 (converted),25.7 µM
same,CC50,[19]; [31],> 100 µM
same,TGI,[19]; read-out: pTGI,> 100 µM
same,growth at 0.01 µM,[20],105%
same,growth at 1 µM,[21],94%
same,growth at 0.01 µM,[22],108%
same,growth at 1 µM,[23],68%
same,growth at 100 µM,[24],36%
same,growth at 100 µM,[25],3%
same,growth at 0.01 µM,[26],92%
same,Activity,[27],12.4%
same,GI50,[28]; read-out: GI50,6.46 µM
same,CC50,[28]; [30],> 100 µM
same,TGI,[28]; read-out: TGI,> 100 µM
same,GI50,[28]; read-out: pGI50 (converted),6.46 µM
same,CC50,[28]; [31],> 100 µM
same,TGI,[28]; read-out: pTGI,> 100 µM
same,growth at 10 µM,[29],13%
CCS/C(Nc1ccccc1)=C(\C#N)C(=O)Nc1ccc(OC)cc1,growth at 0.01 µM,[1],94%
same,growth at 0.01 µM,[2],91%
same,growth at 10 µM,[3],9%
same,GI50,[4]; read-out: GI50,370 nM
same,CC50,[4]; [30],> 100 µM
same,TGI,[4]; read-out: TGI,1890 nM
same,GI50,[4]; read-out: pGI50 (converted),372 nM
same,CC50,[4]; [31],> 100 µM
same,TGI,[4]; read-out: pTGI (converted),1910 nM
same,GI50,[5]; read-out: GI50,6.56 µM
same,CC50,[5]; [30],> 100 µM
same,TGI,[5]; read-out: TGI,> 100 µM
same,GI50,[5]; read-out: pGI50 (converted),6.61 µM
same,CC50,[5]; [31],> 100 µM
same,TGI,[5]; read-out: pTGI,> 100 µM
same,growth at 0.1 µM,[6],96%
same,growth at 1 µM,[7],89%
same,growth at 0.01 µM,[8],98%
same,growth at 100 µM,[9],37%
same,Activity,[10],15.51%
same,growth at 0.1 µM,[11],96%
same,growth at 100 µM,[12],16%
same,growth at 1 µM,[13],84%
same,growth at 100 µM,[14],37%
same,growth at 0.01 µM,[15],100%
same,GI50,[16]; read-out: GI50,2.55 µM
same,CC50,[16]; [30],> 100 µM
same,TGI,[16]; read-out: TGI,> 100 µM
same,GI50,[16]; read-out: pGI50 (converted),2.57 µM
same,CC50,[16]; [31],> 100 µM
same,TGI,[16]; read-out: pTGI,> 100 µM
same,GI50,[17]; read-out: GI50,5.91 µM
same,CC50,[17]; [30],> 100 µM
same,TGI,[17]; read-out: TGI,> 100 µM
same,GI50,[17]; read-out: pGI50 (converted),5.89 µM
same,CC50,[17]; [31],> 100 µM
same,TGI,[17]; read-out: pTGI,> 100 µM
same,GI50,[18]; read-out: GI50,2540 nM
same,CC50,[18]; [30],> 100 µM
same,TGI,[18]; read-out: TGI,26.6 µM
same,GI50,[18]; read-out: pGI50 (converted),2570 nM
same,CC50,[18]; [31],> 100 µM
same,TGI,[18]; read-out: pTGI (converted),26.9 µM
same,GI50,[19]; read-out: GI50,21.2 µM
same,CC50,[19]; [30],> 100 µM
same,TGI,[19]; read-out: TGI,> 100 µM
same,GI50,[19]; read-out: pGI50 (converted),21.4 µM
same,CC50,[19]; [31],> 100 µM
same,TGI,[19]; read-out: pTGI,> 100 µM
same,growth at 0.01 µM,[20],109%
same,growth at 1 µM,[21],94%
same,growth at 0.01 µM,[22],105%
same,growth at 1 µM,[23],78%
same,growth at 100 µM,[24],21%
same,growth at 100 µM,[25],-17%
same,growth at 0.01 µM,[26],93%
same,Activity,[27],16.44%
same,GI50,[28]; read-out: GI50,5.3 µM
same,CC50,[28]; [30],> 100 µM
same,TGI,[28]; read-out: TGI,> 100 µM
same,GI50,[28]; read-out: pGI50 (converted),5.25 µM
same,CC50,[28]; [31],> 100 µM
same,TGI,[28]; read-out: pTGI,> 100 µM
same,growth at 10 µM,[29],18%
